Source: the supplement of paper PMC10627819

How the values were obtained:
B. subtilis 168 = experiment: Bliss interaction score (quartile over a dose matrix) (fitness difference); higher = more antagonism (negative = synergy)
How it was run: (§1)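 At entry into stationary phase, OD595 was recorded and divided by the robust mean of the no-drug wells on that plate, with any value above 1 set to 1. This gives the fitness measure used throughout. Single-drug fitness was inferred from combination data, and the Bliss score, observed minus product-expected fitness, is shown as quartiles across technical, biological and donor/recipient replicates.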

S. aureus DSM 20231 = experiment: as above
How it was run: as §1

S. pneumoniae D39V [1] = experiment: as above
How it was run: as §1

S. aureus Newman = experiment: as above
How it was run: as §1

S. pneumoniae D39V [2] = experiment: fitness (endpoint OD595 vs no drug) (fraction); higher = more growth
How it was run: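 Fitness expresses the optical density reached at the stationary-phase transition as a fraction of the robust mean of no-drug control wells. It is capped at 1. Measurements were OD595 every 30 min for 14 h at 37 °C after inoculation of 384-well plates at OD595 0.01 (30 µl, or 55 µl for S. pneumoniae), minus the first reading.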
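Wherever Bliss interaction score (quartile over a dose matrix) is given: first quartile when negative (synergy) and third quartile when positive (antagonism).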

CN(C)C(=O)C(CCN1CCC(O)(c2ccc(Cl)cc2)CC1)(c1ccccc1)c1ccccc1 [Loperamide] + Clc1ccc(COC(Cn2ccnc2)c2ccc(Cl)cc2Cl)c(Cl)c1 [Miconazole]
Details	Bliss interaction score
B. subtilis 168	-0.136
S. aureus DSM 20231	0.0862
S. aureus Newman	-0.158
S. pneumoniae D39V [1]	-0.0772

fitness, S. pneumoniae D39V [2]
Details	partner 1.073 µg/mL	partner 1.25 µg/mL	partner 2.145 µg/mL	partner 2.5 µg/mL	partner 4.29 µg/mL	partner 5 µg/mL
first compound 17.14 µg/mL	–	0.963	–	0.954	–	0.933
first compound 20 µg/mL	≥ 1	–	≥ 1	–	0.926	–
first compound 34.28 µg/mL	–	0.884	–	0.907	–	0.925
first compound 40 µg/mL	≥ 1	–	0.955	–	0.731	–

S. pneumoniae D39V [2], first compound 68.57 µg/mL, one replicate
Details	fitness
partner 1.25 µg/mL	0.857
partner 2.5 µg/mL	0.85
partner 5 µg/mL	0.923

CN(C)C(=O)C(CCN1CCC(O)(c2ccc(Cl)cc2)CC1)(c1ccccc1)c1ccccc1 [Loperamide] + C/C(=C\C(=O)OCCCCCCCCC(=O)O)C[C@@H]1OC[C@H](C[C@@H]2O[C@H]2[C@@H](C)[C@H](C)O)[C@@H](O)[C@H]1O [Pseudomonic acid]
Details	Bliss interaction score
B. subtilis 168	-0.0528
S. aureus DSM 20231	0.0202
S. aureus Newman	0.0342
S. pneumoniae D39V [1]	0.121

fitness, S. pneumoniae D39V [2]
Details	first compound 17.14 µg/mL	first compound 20 µg/mL	first compound 34.28 µg/mL	first compound 40 µg/mL	first compound 80 µg/mL
partner 0.03 µg/mL	≥ 1	0.9	0.99	0.961	0.845
partner 0.06 µg/mL	0.859	0.726	0.808	0.766	0.747
partner 0.12 µg/mL	0.686	0.544	0.632	0.569	0.509

S. pneumoniae D39V [2], first compound 68.57 µg/mL, one replicate
Details	fitness
partner 0.03 µg/mL	≥ 1
partner 0.06 µg/mL	0.996
partner 0.12 µg/mL	0.663

CC1(C)S[C@@H]2[C@H](NC(=O)[C@H](N)c3ccc(O)cc3)C(=O)N2[C@H]1C(=O)O [Amoxicillin] + CC[C@H]1OC(=O)[C@H](C)[C@@H](O[C@H]2C[C@@](C)(OC)[C@@H](O)[C@H](C)O2)[C@H](C)[C@@H](O[C@@H]2O[C@H](C)C[C@H](N(C)C)[C@H]2O)[C@](C)(OC)C[C@@H](C)C(=O)[C@H](C)[C@@H](O)[C@]1(C)O [Clarithromycin]
Details	Bliss interaction score
B. subtilis 168	0.0461
S. aureus DSM 20231	-0.0818
S. aureus Newman	-0.0752
S. pneumoniae D39V [1]	0.177

fitness, S. pneumoniae D39V [2], one replicate
Details	partner 0.007812 µg/mL	partner 0.01562 µg/mL	partner 0.03125 µg/mL	partner 0.0625 µg/mL	partner 0.125 µg/mL	partner 0.25 µg/mL
first compound 0.0008 µg/mL	0.921	0.834	0.67	0.748	0.666	0.364
first compound 0.0015 µg/mL	0.844	0.836	0.633	–	–	–
first compound 0.003 µg/mL	0.789	0.772	0.546	–	–	–
first compound 0.006 µg/mL	–	–	–	0.436	0.303	0.149

fitness, S. pneumoniae D39V [2]
Details	partner 0.0625 µg/mL	partner 0.07 µg/mL	partner 0.125 µg/mL	partner 0.14 µg/mL	partner 0.25 µg/mL	partner 0.28 µg/mL
first compound 0.0008 µg/mL	–	0.212	–	0.157	–	0.0725
first compound 0.0015 µg/mL	0.681	0.24	0.567	0.133	0.366	0.0875
first compound 0.003 µg/mL	0.684	0.126	0.551	0.104	0.357	0.0502

CO/N=C(\C(=O)N[C@@H]1C(=O)N2C(C(=O)[O-])=C(C[N+]3(C)CCCC3)CS[C@H]12)c1csc(N)n1 [Cefepime] + CO[C@H]1/C=C/O[C@@]2(C)Oc3c(C)c(O)c4c(O)c(c(/C=N/N5CCN(C)CC5)c(O)c4c3C2=O)NC(=O)/C(C)=C\C=C\[C@H](C)[C@H](O)[C@@H](C)[C@@H](O)[C@@H](C)[C@H](OC(C)=O)[C@@H]1C [Rifampicin]
Details	Bliss interaction score
B. subtilis 168	0.118
S. aureus DSM 20231	0.136
S. aureus Newman	0.035
S. pneumoniae D39V [1]	0.0513

fitness, S. pneumoniae D39V [2]
Details	first compound 0.007 µg/mL	first compound 0.014 µg/mL	first compound 0.0155 µg/mL	first compound 0.028 µg/mL	first compound 0.031 µg/mL
partner 0.025 µg/mL	≥ 1	0.992	–	0.93	–
partner 0.05 µg/mL	≥ 1	0.995	–	0.936	–
partner 0.1 µg/mL	0.477	0.47	0.325	0.222	0.208

fitness, S. pneumoniae D39V [2], one replicate
Details	first compound 0.0078 µg/mL	first compound 0.0155 µg/mL	first compound 0.031 µg/mL
partner 0.025 µg/mL	0.884	0.779	0.31
partner 0.2 µg/mL	0	0	0
